Tests used:
3T3-L1 cells [1] = test: Quantitative PCR of relative mRNA expression in cell culture samples; format: cell-based, Mouse; conditions: mature adipocytes: differentiated 15 days, then 62.5 µM for 8 more days
3T3-L1 cells [2] = test: MTT cell viability / proliferation assay; format: cell-based, Mouse
Description: The cell viability was evaluated using the MTT assay. 3T3-L1 cells were seeded at a density of 1×10^3 in 96-well plates and incubated for 24h. Compounds 1 and 2 were added in the wells at various concentrations and then incubated at 37 °C. Cells were treated with compound 1 at concentrations of 62.5, 46.875, 31.25, 15.625, 7.81 and 3.9 µM. Cells were treated with compound 2 at concentrations of 62.5, 25.0, 12.5, 6.25 and 3.125 µM. After 24, 48, and 72 h of treatment, MTT solution was added in the wells at a final concentration of 0.5 mg/mL and incubated for 4 h. Cell culture media with MTT was removed and the formazan crystals were dissolved in 100 µl/well isopropanol/HCl (0.4%) and the absorbance was measured at 600 nm using the Infinite® 200 PRO microplate plate reader (Tecan, Zurich, Switzerland).

3T3-L1 cells [3] = test: Quantitative PCR of relative mRNA expression in cell culture samples; format: cell-based, Mouse; conditions: for Gapdh expression / Hk2 expression / Pfkfb3 expression: 62.5 µM for 24 h
Description: Mouse 3T3-L1 preadipocytes were maintained in proliferation medium containing DMEM supplemented with 10% (v/v) heat inactivated NBCS and 1% (v/v) penicillin-streptomycin at 37 °C with 5% CO2, humidified atmosphere. Cells were seeded in T-75 flasks at a density of 25×10^4 cells/flask. Cultures never became completely confluent according to the manufacturer's instructions. They were passaged using trypsin-EDTA solution once they reached 70-80% confluency. For differentiation, 3T3-L1 cells were seeded and after 24 h (day 1), cell differentiation was induced by changing the medium to high glucose DMEM containing 10% (v/v) heat inactivated FBS, 1% penicillin-streptomycin, 10 µg/mL insulin, 0.25 µM Dexamethasone (GAP), 0.5 mM IBMX (=differentiation medium I). On day 3, the medium was changed to high glucose DMEM containing 10% FBS, 1% penicillin- streptomycin, and 10 µg/mL insulin (=differentiation medium II). Thereafter, medium was changed every other day switching between differentiation medium I and differentiation medium II until day 12 or 23, when adipocytes were harvested. Control group preadipocytes were seeded at a higher density and harvested after two days. Test compounds were administered either at the initiation of differentiation, or after 15 days of differentiation and with every medium change. To determine the effect on preadipocyte differentiation, cells were seeded and after 24 h they were treated with neorogioldiol. Neorogioldiol was maintained in the culture medium throughout cell differentiation period. To determine the effect of neorogioldiol on mature adipocytes, cells were seeded and induced to differentiate for 14 days, then on day 15 neorogioldiol was added to the differentiation medium for 24 h before cells were harvested. Each compound used was diluted in a 90% carbowax™ 400, 10% (v/v) absolute ethanol solution serving as a control solvent. The final concentration in culture was 0.09% (v/v) carbowax and 0.01% (v/v) ethanol. Compounds were used at the following concentrations: neorogioldiol (1) 62.5µM and neorogioltriol (2) 25µM.
Adipocytes and preadipocytes were harvested using the TRI Reagent®. RNA isolation was carried out according to the manufacturer's instructions. The purified RNA was quantified using the Nanodrop micro-volume spectrophotometer and 500 ng of each sample were used as a template for reverse transcription. cDNA synthesis was performed using the PrimeScriptTM RT reagent Kit (TaKaRa, RR037A) according to manufacturer's instructions. The cDNA produced by the above described procedure was diluted and used as a template for two-step quantitative PCR in a StepOnePlus™ Real-Time PCR System (Applied Biosystems™, 4376600) for a maximum of 40 cycles, as follows: start step 95 °C for 3 min, repeat steps: 95 °C for 15 s and 60 °C for 30 s. Amplification was performed using KAPA SYBR® FAST Universal qPCR kit (Kapa Biosystems, KK4618) according to manufacturer's instructions. Relative quantitative analysis was accomplished calculating fold-changes of gene expression as 2-(ΔΔCt), where ΔCt is (Ct (gene of interest) - Ct (housekeeping gene)). Ppib was used as internal control gene in 3T3L1 cells and in the fat fraction of mice abdominal fat, Rps9 was used as internal control gene in the stromal vascular fraction of mice abdominal fat and Actb was used as internal control gene in liver samples. Table 1. List of primers used for quantitative real-time PCR analysis.

[4] = Serum biochemical toxicity markers in high fat diet-fed mice; format: in vivo, C57BL/6 adult male mice; conditions: intraperitoneal 0.25 mg/mouse every 48 h for 35 days; vs control group
Description: (§1) All procedures were conducted in compliance with protocols approved by the Animal Care Committee of the University of Crete, School of Medicine (Facility number EL91-BIOexp-06), in conjunction with the Veterinary Department of the Region of Crete, Heraklion, Crete, Greece. C57BL/6 adult male mice were maintained in a 12 h day/night cycle and 21-23 °C conditions. Mice were provided with water and either normal fat diet, or high fat diet (60% energy from fat) ad libitum. All mice were weighed every 48 h.
(§2) Neorogioldiol was first dissolved in 90% carbowaxTM 400, 10% (v/v) absolute ethanol solution and then diluted 1:10 in water for injection. A dose of 0.25 mg neorogioldiol in a total volume of 200 µl was administered intraperitoneally every 48 h in mice in high fat + neorogioldiol group starting from day 1. 4-5 mice were used per group and each experiment was performed twice.
To detect serum levels of alanine transaminase, aspartate transaminase, creatine phosphokinase and lactate dehydrogenase, serum was collected from peripheral blood via cardiac puncture under isoflurane anesthesia. Serum samples were stored at -80 °C. The levels of alanine transaminase, aspartate transaminase, creatine phosphokinase and lactate dehydrogenase were measured by standard enzymatic procedures using an automated biochemical analyzer AU5800 (Beckman).

[5] = Glucose tolerance test in high fat diet-fed mice; format: in vivo, C57BL/6 adult male mice
Description: as §1, §2
Mice were fasted for 16 h before receiving an intraperitoneal injection of 35% dextrose (100 µl / 35 gr). Blood glucose concentrations were measured in blood collected by venous bleeding from the tail vein immediately before the injections and after 30, 60 and 120 min.

[6] = cells differentiated in the presence of compound, 12 days, 1 at 62.5 µM, 2 at 25 µM
[7] = differentiation in presence of serial concentrations 62.5, 31.25, 15.625, 7.81 and 3.9 µM, dose-dependent
[8] = mature adipocytes: differentiated 15 days, then 62.5 µM for 8 more days

Substance: neorogioldiol
- Dlkl expression (3T3-L1 cells [1]): did not affect the expression
- Lep expression (3T3-L1 cells [1]): decreased the expression
- Slc2a4 expression (3T3-L1 cells [1]): decreased the expression
- concentrations that did not exhibit cytotoxicity (3T3-L1 cells [2]; concentration chosen for further analyses): 62.5 µM
- concentration with cytostatic effects (3T3-L1 cells [2]; three-day incubation (24, 48, 72 h), compound 1: after the first 24 h of treatment): 62.5 µM
- Gapdh expression (3T3-L1 cells [3]; adipocytes): decreasing
- Hk2 expression (3T3-L1 cells [3]; adipocytes): decreasing
- Pfkfb3 expression (3T3-L1 cells [3]; adipocytes): decreasing
- Adipoq expression levels (3T3-L1 cells [3]; [6]): restricted the increase
- Dlkl mRNA expression (3T3-L1 cells [3]; [6]): diminished
- Lep expression levels (3T3-L1 cells [3]; [6]): restricted the increase
- Slc2a4 expression levels (3T3-L1 cells [3]; [6]): restricted the increase
- Lep levels (3T3-L1 cells [3]; [7]): restricted the increase
- Slc2a4 levels (3T3-L1 cells [3]; [7]): restricted the increase
- Adipoq expression (3T3-L1 cells [3]; [8]): decreased the expression
- Fabp4 expression (3T3-L1 cells [3]; [8]): decreased the expression
- Pparg expression (3T3-L1 cells [3]; [8]): decreased the expression
- Gapdh expression (3T3-L1 cells [3]; preadipocytes): downregulated
- Hk2 expression (3T3-L1 cells [3]; preadipocytes): downregulated
- Pfkfb3 expression (3T3-L1 cells [3]; preadipocytes): downregulated
- alanine transaminase in serum [4]: No difference
- aspartate transaminase in serum [4]: No difference
- creatine phosphokinase in serum [4]: No difference
- lactate dehydrogenase in serum [4]: No difference
- glucose intolerance (glucose tolerance test) ([5]; day 16, 0.25 mg/mouse i.p. every 48 h): had not developed glucose intolerance
- glucose intolerance (glucose tolerance test) ([5]; day 34, 0.25 mg/mouse i.p. every 48 h): became glucose intolerant

— EP4556003A1, “ANTI-OBESITY AND ANTI-DIABETIC ACTIVITY OF BROMINATED DITERPENES FROM RED ALGAE OF THE GENUS LAURENCIA AND APPLICATIONS THEREOF” (priority 2023, dated 2025)
